The results in this text go back to patent US20220025003A1, “REAGENTS AND METHODS FOR CONTROLLING PROTEIN FUNCTION AND INTERACTION” (University of Washington, priority 2018, published 2022).

One test concerns NS3a in NIH3T3 cells. In words: Confocal microscopy for colocalization analysis (fixed cells). The format is cell-based. The conditions noted are these: 5 μM drug.
The next test deals with NS3a inactive. As to the kind of experiment: ANR-GST pulldown with immobilized biotinylated NS3a. Type of test: binding, hepatitis C virus. The conditions noted are these: 10 μM danoprevir, 5 μM ANR-GST. How it is done:
Pierce high-capacity streptavidin beads (Thermo-Fisher #P120359) were prepared by washing three times with Buffer PDA (TBS+0.05% tween+0.5 mg/mL BSA). For each condition and each replicate, beads were washed and incubated separately. The wash was performed by adding 200 μL Buffer PDA to 30 μL of a 50/50 bead slurry, inverting to mix, and spinning down (2500×g for 2 min). The supernatant was removed by pipetting, and the wash was repeated two more times to end with a 50/50 slurry of beads in wash buffer.
Purified biotinylated NS3a was prepared at a 50× final concentration and 10 μL were added to a 490 μL 50/50 slurry of streptavidin beads and Buffer PD for final NS3a concentration of 125 nM. Beads were incubated and rotated at 4° C. After one hour, beads were harvested and washed three times as described previously, ending in a 50/50 bead/buffer slurry. ANR was added to all samples at a final concentration of 5 μM. For the danoprevir treated samples, danoprevir was added to a final concentration of 10 μM. Buffer PD was added to a final volume of 500 μL, and the beads were incubated and rotated at 4° C. After 1 hour, beads were pelleted and washed three times in Buffer FDB (TBS buffer+0.05% Tween) with 5 minute incubations between washes on a rotator at 4° C. To obtain final bound protein, beads were pelleted and supernatant was aspirated, resulting in a final volume of beads of 20 μL. […]

For the compound `CC(C)(C)OC(=O)N[C@H]1CCCCC/C=C\[C@@H]2C[C@@]2(C(=O)NS(=O)(=O)C2CC2)NC(=O)[C@@H]2C[C@@H](OC(=O)N3Cc4cccc(F)c4C3)CN2C1=O` [danoprevir], in the test with NS3a in NIH3T3 cells, the “Colocalization of DNCR2-EGFP and GNCR1-BFP with NS3a-mCherry-CAAX” value is recorded as “DNCR2/NS3a colocalization”; the “Localization of NS3a-mCherry with Tom20-BFP-ANR and DNCR2-EGFP-CAAX” value is recorded as “moved to the plasma membrane”. Moreover, in the test on NS3a in NIH3T3 cells (15 min), the “Colocalization of NS3a-mCherry with ANR-BFP-CAAX or NLS-DNCR2-EGFP” value is on record as “recruited NS3a to the nucleus with NLS-DNCR2-EGFP” and the “Colocalization of NS3a-mCherry with GNCR1-BFP-CAAX or Tom20-DNCR2-EGFP” value was “led to colocalization with mitochondria-targeted Tom20-DNCR2-EGFP”. Moreover, the “pull down of ANR-GST by immobilized NS3a inactive” value in the test with NS3a inactive is “inhibits the ability of immobilized NS3a inactive to pull down ANR-GST”.
